Common to all, as to assay: inhibition of tumour cell growth, NCI panel, 48 h
Experiment [1] relates to NCI-H23 lung.
Experiment [2] relates to NCI-H522 lung.
The subject of experiment [3] is SK-MEL-28 melanoma.
Experiment [4] deals with M14 melanoma.
The subject of experiment [5] is HCT-116 colon.
For experiment [6], the system named is SW-620 colon.
In experiment [7] the test system is NCI/ADR-RES ovarian.
Experiment [8] deals with SF-268 CNS.
The subject of experiment [9] is SN12C renal.
Experiment [10] has as its system HCT-15 colon.

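Briefly, cells in 96-well plates were exposed to five compound concentrations for 48 h, and endpoints were estimated by linear interpolation. The concentration for 50% growth inhibition is given as GI50. Definition used: TGI = concentration required for complete inhibition of growth.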 Where only a bound is given, the exact number is not on record here.

Consider `Oc1cc(Br)cc2cc(Br)cnc12`, for which the TGI is 46.1 µM in [1]; 8.2 µM in [2]; over 100 µM in experiment [3]; 29.2 µM in experiment [4]; over 100 µM in experiment [5]; over 100 µM in experiment [6]. Moreover, the TGI in [7] is over 100 µM; in experiment [8], over 100 µM; in experiment [9] it was 73 µM; in [10], over 100 µM.

Turning to `COc1ccc(N2C(=O)CSC2c2cc(OC)c(OC)c(OC)c2)cc1` (configuration not stated), the TGI is over 100 µM in experiment [1]; 73.6 µM in experiment [2]; over 100 µM in experiment [3]; 57.8 µM in experiment [4]; 33.4 µM in [5]; over 100 µM in [6]. Besides, the TGI was 85.6 µM in experiment [7], over 100 µM in [8], 65.9 µM in [9] and 44.4 µM in experiment [10].

With `Cc1cccc(/C=N/NC(=S)NC(C)(C)C)n1`, the TGI in experiment [1], in experiment [2], in experiment [3], in experiment [4], in experiment [5] and in experiment [6] was over 100 µM in each case. The TGI in experiment [7], in experiment [8], in [9] and in experiment [10] was over 100 µM throughout.

As for `C[N+](C)(C)c1nc(N)nc2c1ncn2C1OC(CO)C(O)C1O` (configuration not stated), the TGI in experiment [1], in [2], in experiment [3], in [4], in experiment [5] and in experiment [6] was over 100 µM each time. In addition, the TGI in experiment [7], in [8], in experiment [9] and in [10] was over 100 µM in each case.

Regarding `Cc1cc2nnn(C3CCCO3)c2cc1C` (configuration not stated), the TGI in experiment [1], in experiment [2], in experiment [4], in experiment [5], in [7] and in experiment [8] was over 100 µM throughout. The TGI in [9] and in experiment [10] was over 100 µM throughout.

As to `NC(=S)N1N=C(c2ccc3c(c2)CCC3)CC1c1ccccc1` (configuration not stated), the TGI in experiment [1] was 95.5 µM; in experiment [2] it was 24.7 µM; in experiment [3], over 100 µM; in [4], over 100 µM; in experiment [5] it was 87.6 µM; in experiment [6] it was over 100 µM. The TGI was 58.6 µM in [7], over 100 µM in experiment [8], over 100 µM in experiment [9] and 69.6 µM in [10].

Turning to `CCCCCCCCCC[C@@H](O)[C@H]1CC[C@@H]([C@H]2CC[C@H]([C@H](O)CCCCCCCCCC[C@@H]3CC(CC(C)=O)C(=O)O3)O2)O1` (some centres not stated), the GI50 in experiment [1] is 0.754 µM; in experiment [3], 29 µM; in experiment [4], 20 µM; in experiment [5], 0.218 µM; in [6] it was 37.2 µM; in experiment [7], 11.9 µM. The GI50 in experiment [8] was 27.4 µM; in [9], 26.7 µM; in [10], 20.9 µM. In addition, the TGI is over 100 µM in [1]; 37.1 µM in [2]; over 100 µM in experiment [3]; 50.4 µM in experiment [4]; over 100 µM in [5]; over 100 µM in experiment [6]. Besides, the TGI in experiment [8] and in experiment [10] was over 100 µM throughout.

With `C=CC(=O)N1C/C(=C\c2ccc(F)cc2)C(=O)/C(=C/c2ccc(F)cc2)C1`, the TGI in experiment [1] is 3.32 µM; in experiment [2] it was 1.94 µM; in experiment [4], 1.38 µM; in [5], 0.105 µM; in experiment [6], over 100 µM; in experiment [7], 20.1 µM. For the same compound, the TGI in experiment [8] worked out at 0.622 µM; in experiment [9], 0.936 µM; in experiment [10], 0.433 µM.

For `OCC(CO)CC1COc2ccccc2O1` (configuration not stated), the TGI in [1], in experiment [2], in [3], in experiment [4], in [5] and in [6] was over 10 µM each time. Moreover, the TGI in experiment [7], in experiment [8], in [9] and in experiment [10] was over 10 µM throughout.

Regarding `Cc1nc2ccccc2n1CCc1nc2ccccc2[nH]1`, the TGI in experiment [1], in experiment [2], in [3], in experiment [4], in experiment [5] and in [6] was over 100 µM in each case. The TGI in experiment [7], in experiment [8], in [9] and in experiment [10] was over 100 µM throughout.

For `CN(c1ccccc1)c1c(-c2ccccc2)c(=O)oc2c1ccc1occc12`, the TGI in [1], in [2], in experiment [3], in [5], in experiment [6] and in experiment [7] was over 100 µM in each case. Moreover, the TGI in experiment [8], in experiment [9] and in experiment [10] was over 100 µM each time.

`Cc1cc(C(C)(C)C)c(OCCCN2CCOCC2)c(C(C)(C)C)c1`: the TGI is 32 µM in experiment [1]; 33.2 µM in [2]; 30.5 µM in experiment [3]; 31.7 µM in experiment [4]; 31.4 µM in experiment [5]; 32.3 µM in experiment [6]. Moreover, the TGI in [7] is 32 µM; in [8], 33.5 µM; in [9], 33 µM; in experiment [10], 32.7 µM.

`COc1cccc2c1C(=O)c1c(O)c3c(c(O)c1C2=O)C[C@](O)(C(=O)CO)CC3OC1CC(N)C(OC2CCCCO2)C(C)O1` (some centres not stated): the TGI in experiment [1] came out at 1.97 µM; in experiment [2], 2.62 µM; in experiment [3] it was 3.38 µM; in [5], 2.49 µM; in experiment [6] it was 6.48 µM; in experiment [7], 41.8 µM. Moreover, the TGI is 3.04 µM in [8], 3.12 µM in experiment [9] and 5.14 µM in experiment [10].

The record behind these values is PubChem BioAssay (NCI).
